Laboratory results taken from the supplement of paper PMC10307832.

Tests used:
Assay in all cases: relative viability (nuclei count vs DMSO), 5 days (fraction); higher = more cells survive
[1] = compound: COC1=CC=C(C=C1)COC2=C(C=C(C=C2)CC3=CN=C(N=C3N)N)OC [GW-2580] + CCNC(=O)c1noc(-c2cc(C(C)C)c(O)cc2O)c1-c1ccc(CN2CCOCC2)cc1 [Luminespib] (partner 0.01 µM)
Procedure, shortened: (§1)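 For relative viability, nuclei counts in treated wells were divided by those in vehicle wells. Lung cancer cell lines had been pin-tool dosed in 1536-well plates the day after seeding and cultured for 5 days, then fixed and stained in one step (final 0.05% Triton X-100, 1% formaldehyde, 1 ug/ml Hoechst) and imaged at 4×. Doses were one drug alone or a fixed anchor-drug dose plus five library-drug doses (not always all listed) in √10 steps, and values are duplicate-plate medians.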

[2] = compound: COC1=CC=C(C=C1)COC2=C(C=C(C=C2)CC3=CN=C(N=C3N)N)OC [GW-2580] + O=C(c1cc(Cc2n[nH]c(=O)c3ccccc23)ccc1F)N1CCN(C(=O)C2CC2)CC1 [Olaparib] (partner 8 µM)
Procedure, shortened: as §1

[3] = compound: Cc1cnc(Nc2ccc(OCCN3CCCC3)cc2)nc1Nc1cccc(S(=O)(=O)NC(C)(C)C)c1 [Fedratinib] + COc1cc2c(Oc3ccc(NC(=O)C4(C(=O)Nc5ccc(F)cc5)CC4)cc3F)ccnc2cc1OCCCN1CCOCC1 [Foretinib] (partner 0.25 µM)
Procedure, shortened: as §1

[4] = compound: Cc1cnc(Nc2ccc(OCCN3CCCC3)cc2)nc1Nc1cccc(S(=O)(=O)NC(C)(C)C)c1 [Fedratinib] + C[C@@H](Oc1cc(-c2cnn(C3CCNCC3)c2)cnc1N)c1c(Cl)ccc(F)c1Cl [Crizotinib] (partner 1 µM)
Procedure, shortened: as §1

[5] = compound: Cc1cnc(Nc2ccc(OCCN3CCCC3)cc2)nc1Nc1cccc(S(=O)(=O)NC(C)(C)C)c1 [Fedratinib] + C[C@]1(O)C[C@@H](c2nc(-c3ccc4ccc(-c5ccccc5)nc4c3)c3c(N)nccn32)C1 [Linsitinib] (partner 1 µM)
Procedure, shortened: as §1

[6] = compound: Cc1cnc(Nc2ccc(OCCN3CCCC3)cc2)nc1Nc1cccc(S(=O)(=O)NC(C)(C)C)c1 [Fedratinib] + Nc1ncn([C@H]2C[C@H](O)[C@@H](CO)O2)c(=O)n1 [Decitabine] (partner 2 µM)
Procedure, shortened: as §1

Cell Line | relative viability ([1]; first compound 0.08 µM) | relative viability ([1]; first compound 0.8 µM) | relative viability ([1]; first compound 2.53 µM) | relative viability ([1]; first compound 8 µM) | relative viability ([2]; first compound 0.08 µM) | relative viability ([2]; first compound 0.8 µM) | relative viability ([2]; first compound 2.53 µM) | relative viability ([2]; first compound 8 µM) | relative viability ([3]; first compound 0.1 µM) | relative viability ([3]; first compound 0.3162 µM) | relative viability ([3]; first compound 1 µM) | relative viability ([4]; first compound 0.1 µM) | relative viability ([4]; first compound 0.3162 µM) | relative viability ([4]; first compound 1 µM) | relative viability ([5]; first compound 0.1 µM) | relative viability ([5]; first compound 0.3162 µM) | relative viability ([5]; first compound 1 µM) | relative viability ([6]; first compound 0.1 µM) | relative viability ([6]; first compound 0.3162 µM) | relative viability ([6]; first compound 1 µM)
HOP-62 | 1.02 | 1.04 | 0.91 | 0.917 | 0.512 | 0.809 | 0.179 | 0.402 | 1.1 | 0.982 | 0.959 | 0.786 | 0.891 | 0.784 | 0.837 | 0.975 | 0.884 | 0.224 | 0.172 | 0.202
LC-2-ad | 1.03 | 1.07 | 1.12 | 1.02 | 0.723 | 0.727 | 0.702 | 0.722 | 1.02 | 1.01 | 0.784 | 0.474 | 0.444 | 0.446 | 0.838 | 0.85 | 0.71 | 0.902 | 0.776 | 0.741
LCLC-97TM1 | 0.771 | 0.728 | 0.799 | 0.694 | 0.379 | 0.579 | 0.313 | 0.428 | 1.03 | 0.913 | 0.935 | 0.353 | 0.24 | 0.334 | 0.151 | 0.192 | 0.203 | 0.273 | 0.255 | 0.214
LCLC-103H | 1.01 | 0.895 | 0.844 | 0.839 | 0.799 | 0.895 | 0.733 | 0.736 | 0.644 | 0.797 | 0.608 | 1.07 | 0.922 | 1.01 | 1.19 | 1.1 | 0.966 | 0.725 | 0.734 | 0.703
LK-2 | 0.16 | 0.173 | 0.238 | 0.175 | 0.625 | 0.732 | 0.612 | 0.775 | 1.1 | 1.14 | 1.14 | – | 0.187 | 0.214 | 0.349 | 0.733 | 0.495 | 0.275 | 0.269 | 0.352
LOU-NH91 | 0.413 | 0.34 | 0.319 | 0.356 | 0.916 | 0.946 | 0.897 | 0.98 | 0.917 | 0.956 | 0.875 | 0.701 | 0.764 | 0.75 | 0.844 | 1.08 | 0.831 | 0.756 | 0.798 | 0.785
LU99A | 0.289 | 0.241 | 0.193 | 0.273 | 0.259 | 0.264 | 0.261 | 0.269 | 0.717 | 0.858 | 0.644 | 0.427 | 0.618 | 0.509 | 0.521 | 0.513 | 0.48 | 0.936 | 0.968 | 0.892
LXF-289 | 0.719 | 0.732 | 0.684 | 0.616 | 1.24 | 1.14 | 1.06 | 1.19 | 0.963 | 0.958 | 0.981 | 0.81 | 0.79 | 0.804 | 0.989 | 0.943 | 0.963 | 0.36 | 0.338 | 0.378
NCI-H23 | 0.226 | 0.194 | 0.213 | 0.191 | 0.329 | 0.329 | 0.321 | 0.273 | 0.945 | 0.767 | 0.822 | 0.305 | 0.475 | 0.41 | 0.583 | 0.618 | 0.431 | 0.322 | 0.338 | 0.324
NCI-H322M | 0.868 | 0.887 | 0.805 | 0.903 | 0.76 | 0.956 | 0.753 | 0.626 | 0.946 | 0.95 | 0.596 | 0.949 | 0.877 | 0.966 | 0.95 | 0.939 | 0.799 | 0.657 | 0.749 | 0.64
NCI-H358 | 0.34 | 0.344 | 0.364 | 0.463 | 0.652 | 0.658 | 0.635 | 0.621 | 0.482 | 0.63 | 0.541 | 0.427 | 0.608 | 0.374 | 0.565 | 0.597 | 0.53 | 0.156 | 0.21 | 0.101
NCI-H441 | 0.307 | 0.621 | 0.493 | 0.293 | 0.644 | 0.582 | 0.555 | 0.585 | 1.12 | 0.907 | 0.868 | 0.65 | 0.623 | 0.619 | 0.518 | 0.442 | 0.343 | 0.223 | 0.218 | 0.233
NCI-H460 | 0.0341 | 0.0427 | 0.0355 | 0.0322 | 0.379 | 0.508 | 0.516 | 0.353 | 0.793 | 1.05 | 0.997 | 0.47 | 0.767 | 0.812 | 0.806 | 0.773 | 0.52 | 0.556 | 0.495 | 0.232
NCI-H520 | 0.224 | 0.202 | 0.196 | 0.274 | 0.3 | 0.416 | 0.337 | 0.342 | 0.797 | 0.736 | 0.726 | 0.716 | 0.703 | 0.594 | 1.09 | 1.25 | 1.02 | 0.557 | 0.454 | 0.532
NCI-H596 | 0.987 | 1.03 | 0.998 | 0.913 | 0.8 | 0.746 | 0.715 | 0.651 | 0.881 | 0.78 | 0.762 | 0.983 | 1.01 | 0.973 | 1.01 | 1.08 | 1.08 | 0.937 | 1.01 | 0.975
